The target of this assay is wild-type human cardiac sodium channel, hNav1.5 (late sodium current) in HEK293 cells (Homo sapiens, UniProt Q14524). Briefly: Late INa screening assay (automated whole-cell patch clamp, PatchXpress). In kind it is cell-based. To be noted: late INa generated with 10 μM Tefluthrin (or 50 nM ATX II), HEK293 hNav1.5; for inhibition at 1 µM: HEK293, compound at 1 μM, read-out: Late INa 1 μM (percent block of late INa). In short, it runs like this: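 hNav1.5-expressing HEK293 cells (no β subunits) were recorded by automated whole-cell patch clamp at 24–27 °C with CsF-based internal solution. Late current was induced by 10 μM tefluthrin (or 50 nM ATX II) and evoked by 250 ms steps from −120 to −20 mV at 0.1 Hz. Compounds, typically 10 μM, were applied in three additions over 7–8 min; mean current at 225–250 ms, normalised to 0Na baseline, gave percent block.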
Sequence of wild-type human cardiac sodium channel, hNav1.5 (late sodium current) in HEK293 cells (Q14524 whole entry): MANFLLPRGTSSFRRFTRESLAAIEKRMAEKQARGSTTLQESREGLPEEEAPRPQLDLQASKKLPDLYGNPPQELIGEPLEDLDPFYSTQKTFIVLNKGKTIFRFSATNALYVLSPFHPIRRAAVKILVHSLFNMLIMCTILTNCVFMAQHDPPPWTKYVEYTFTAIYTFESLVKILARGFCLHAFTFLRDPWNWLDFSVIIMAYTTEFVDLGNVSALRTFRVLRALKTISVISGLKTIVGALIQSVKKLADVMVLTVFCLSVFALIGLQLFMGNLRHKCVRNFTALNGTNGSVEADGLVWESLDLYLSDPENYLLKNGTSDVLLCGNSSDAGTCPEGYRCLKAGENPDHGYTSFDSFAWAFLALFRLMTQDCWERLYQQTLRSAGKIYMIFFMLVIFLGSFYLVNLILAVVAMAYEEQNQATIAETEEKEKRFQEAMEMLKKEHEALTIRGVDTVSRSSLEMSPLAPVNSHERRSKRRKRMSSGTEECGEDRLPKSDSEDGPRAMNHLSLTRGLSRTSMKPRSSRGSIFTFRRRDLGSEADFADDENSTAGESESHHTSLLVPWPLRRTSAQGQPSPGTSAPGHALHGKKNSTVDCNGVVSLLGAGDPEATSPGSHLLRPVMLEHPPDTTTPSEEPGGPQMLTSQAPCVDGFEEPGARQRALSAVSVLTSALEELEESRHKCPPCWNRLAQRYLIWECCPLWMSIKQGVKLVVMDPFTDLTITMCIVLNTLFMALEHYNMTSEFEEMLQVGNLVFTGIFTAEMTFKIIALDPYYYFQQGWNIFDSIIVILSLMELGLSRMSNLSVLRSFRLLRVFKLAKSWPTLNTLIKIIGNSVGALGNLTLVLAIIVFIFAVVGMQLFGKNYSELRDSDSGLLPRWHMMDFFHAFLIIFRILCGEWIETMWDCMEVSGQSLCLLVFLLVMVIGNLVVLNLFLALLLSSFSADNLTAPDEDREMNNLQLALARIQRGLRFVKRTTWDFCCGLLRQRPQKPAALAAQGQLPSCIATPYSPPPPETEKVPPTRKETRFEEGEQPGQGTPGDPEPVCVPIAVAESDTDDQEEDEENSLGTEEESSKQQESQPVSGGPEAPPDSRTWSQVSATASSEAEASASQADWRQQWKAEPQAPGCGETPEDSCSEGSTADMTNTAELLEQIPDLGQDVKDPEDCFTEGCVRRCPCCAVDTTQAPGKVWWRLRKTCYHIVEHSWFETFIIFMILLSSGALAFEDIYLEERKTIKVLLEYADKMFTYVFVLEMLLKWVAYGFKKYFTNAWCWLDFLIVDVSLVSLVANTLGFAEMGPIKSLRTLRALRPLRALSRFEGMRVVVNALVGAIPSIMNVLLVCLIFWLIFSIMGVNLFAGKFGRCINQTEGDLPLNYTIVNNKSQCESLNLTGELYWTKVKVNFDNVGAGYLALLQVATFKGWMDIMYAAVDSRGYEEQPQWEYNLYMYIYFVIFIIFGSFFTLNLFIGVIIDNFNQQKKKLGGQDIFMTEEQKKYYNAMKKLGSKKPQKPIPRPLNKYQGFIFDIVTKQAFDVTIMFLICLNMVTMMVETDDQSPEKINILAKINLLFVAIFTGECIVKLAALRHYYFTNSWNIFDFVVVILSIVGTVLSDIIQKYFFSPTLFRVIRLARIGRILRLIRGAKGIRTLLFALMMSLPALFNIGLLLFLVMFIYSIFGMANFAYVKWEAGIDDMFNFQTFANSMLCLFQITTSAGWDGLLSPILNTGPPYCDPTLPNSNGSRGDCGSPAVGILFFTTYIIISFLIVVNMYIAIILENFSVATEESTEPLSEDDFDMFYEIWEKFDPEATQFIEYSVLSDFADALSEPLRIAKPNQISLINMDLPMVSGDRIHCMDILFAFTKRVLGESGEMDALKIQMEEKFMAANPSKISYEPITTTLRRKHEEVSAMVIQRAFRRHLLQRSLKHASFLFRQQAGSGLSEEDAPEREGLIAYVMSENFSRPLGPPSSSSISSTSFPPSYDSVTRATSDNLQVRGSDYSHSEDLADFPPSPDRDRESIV
For orientation: Patch clamp records ionic current or voltage across a cell membrane.

Structures are written as SMILES.

Take `O=c1n(Cc2cccc(C(F)(F)F)n2)nc2ccc(-c3ccc(OC(F)(F)F)cc3)cn12` [compound 62, 6-(4-(trifluoromethoxy)phenyl)-2-((6-(trifluoromethyl)pyridin-2-yl)methyl)-[1,2,4]triazolo[4,3-a]pyridin-3(2H)-one]: the inhibition at 1 µM was found to be 21.6%. On to `O=c1n(CCc2c(F)cccc2F)nc2ccc(-c3ccc(OC(F)(F)F)cc3)cn12` [compound 63, 2-(2,6-difluorophenethyl)-6-(4-(trifluoromethoxy)phenyl)-[1,2,4]triazolo[4,3-a]pyridin-3(2H)-one], for which the inhibition at 1 µM was determined as 46.9%. Still for that read-out and setting: to `O=c1n(CCCc2ccc(F)c(Br)c2)nc2ccc(-c3ccc(OC(F)(F)F)cc3)cn12` [compound 64, 2-(3-(3-bromo-4-fluorophenyl)propyl)-6-(4-(trifluoromethoxy)phenyl)-[1,2,4]triazolo[4,3-a]pyridin-3(2H)-one] belongs 16.7%. Consider `O=c1n(CCOc2cccc(C(F)(F)F)n2)nc2ccc(-c3ccc(OC(F)(F)F)cc3)cn12` [compound 65, 6-(4-(trifluoromethoxy)phenyl)-2-(2-(6-(trifluoromethyl)pyridin-2-yloxy)ethyl)-[1,2,4]triazolo[4,3-a]pyridin-3(2H)-one], for which the inhibition at 1 µM turned out to be 21.1%. Same read-out and setting: as for `O=c1n(CCCOc2ccccc2C(F)(F)F)nc2ccc(-c3ccc(OC(F)(F)F)cc3)cn12` [compound 66, 6-(4-(trifluoromethoxy)phenyl)-2-(3-(2-(trifluoromethyl)phenoxy)propyl)-[1,2,4]triazolo[4,3-a]pyridin-3(2H)-one], the figure is 14.7%; as for `COc1cc(F)ccc1OCCCn1nc2ccc(-c3ccc(OC(F)(F)F)cc3)cn2c1=O` [compound 67, 2-(3-(4-fluoro-2-methoxyphenoxy)propyl)-6-(4-(trifluoromethoxy)phenyl)-[1,2,4]triazolo[4,3-a]pyridin-3(2H)-one], 19.2%; as for `O=c1n(CC#Cc2cnccc2Cl)nc2ccc(-c3ccc(OC(F)(F)F)cc3)cn12` [compound 68, 2-(3-(4-chloropyridin-3-yl)prop-2-ynyl)-6-(4-(trifluoromethoxy)phenyl)-[1,2,4]triazolo[4,3-a]pyridin-3(2H)-one], 11.1%. Still for that read-out and setting: to `COc1ccccc1OCCn1nc2ccc(-c3ccc(OC(F)(F)F)cc3)cn2c1=O` [compound 69, 2-(2-(2-methoxyphenoxy)ethyl)-6-(4-(trifluoromethoxy)phenyl)-[1,2,4]triazolo[4,3-a]pyridin-3(2H)-one] belongs 32.5%; to `N#Cc1ccccc1OCCCn1nc2ccc(-c3ccc(OC(F)(F)F)cc3)cn2c1=O` [compound 70, 2-(3-(3-oxo-6-(4-(trifluoromethoxy)phenyl)-[1,2,4]triazolo[4,3-a]pyridin-2(3H)-yl)propoxy)benzonitrile], 29.9%. `O=c1n(CCCOc2ccccc2C(F)(F)F)nc2ccc(-c3ccc(OC(F)(F)F)cc3)cn12` [compound 71, 6-(4-(trifluoromethoxy)phenyl)-2-(3-(2-(trifluoromethyl)phenoxy)propyl)-[1,2,4]triazolo[4,3-a]pyridin-3(2H)-one]: for the setting “compound at 1 μM”, the “Late INa 1 μM (percent block of late INa)” value is 26.0692%. For `COC[C@@H](Cn1nc2ccc(-c3ccc(OC(F)(F)F)cc3)cn2c1=O)Oc1ncccc1C(F)(F)F` [compound 72, (R)-2-(3-methoxy-2-(3-(trifluoromethyl)pyridin-2-yloxy)propyl)-6-(4-(trifluoromethoxy)phenyl)-[1,2,4]triazolo[4,3-a]pyridin-3(2H)-one], the inhibition at 1 µM was found to be 41.9%.

Consider `O=c1n(CCc2cccnc2)nc2ccc(-c3ccc(OC(F)(F)F)cc3)cn12` [compound 73, 2-(2-(pyridin-3-yl)ethyl)-6-(4-(trifluoromethoxy)phenyl)-[1,2,4]triazolo[4,3-a]pyridin-3(2H)-one], for which the inhibition at 1 µM stood at 10.4%. Same read-out and setting: as for `O=c1n(CCc2ccc(-c3cccnc3)cn2)nc2ccc(-c3ccc(OC(F)(F)F)cc3)cn12` [compound 74, 2-(2-(3,3′-bipyridin-6-yl)ethyl)-6-(4-(trifluoromethoxy)phenyl)-[1,2,4]triazolo[4,3-a]pyridin-3(2H)-one], the figure is 11.1%. On the same count and under the same terms, to `Cc1ccc(OCCn2nc3ccc(-c4ccc(OC(F)(F)F)cc4)cn3c2=O)cc1` [compound 75, 2-(2-(p-tolyloxy)ethyl)-6-(4-(trifluoromethoxy)phenyl)-[1,2,4]triazolo[4,3-a]pyridin-3(2H)-one] belongs 25.7%; to `O=c1n(CCCc2ccc(F)cc2)nc2ccc(-c3ccc(OC(F)(F)F)cc3)cn12` [compound 76, 2-(3-(4-fluorophenyl)propyl)-6-(4-(trifluoromethoxy)phenyl)-[1,2,4]triazolo[4,3-a]pyridin-3(2H)-one], 19%. As for `O=c1n(CC2CCc3ccccc3O2)nc2ccc(-c3ccc(OC(F)(F)F)cc3)cn12` (stereo not drawn) [compound 77, 2-(chroman-2-ylmethyl)-6-(4-(trifluoromethoxy)phenyl)-[1,2,4]triazolo[4,3-a]pyridin-3(2H)-one], the inhibition at 1 µM turned out to be 32.1%. Regarding `O=c1n(CCc2ccc(F)cc2F)nc2ccc(-c3ccc(OC(F)(F)F)cc3)cn12` [compound 78, 2-(2,4-difluorophenethyl)-6-(4-(trifluoromethoxy)phenyl)-[1,2,4]triazolo[4,3-a]pyridin-3(2H)-one], the inhibition at 1 µM worked out at 36.7%. Turning to `O=c1n(CCCOc2cccnn2)nc2ccc(-c3ccc(OC(F)(F)F)cc3)cn12` [compound 79, 2-(3-(pyridazin-3-yloxy)propyl)-6-(4-(trifluoromethoxy)phenyl)-[1,2,4]triazolo[4,3-a]pyridin-3(2H)-one], the inhibition at 1 µM was 11.7%. The same measure, in the same setting: as for `COC(COc1ccccc1Cl)Cn1nc2ccc(-c3ccc(OC(F)(F)F)cc3)cn2c1=O` (stereo not drawn) [compound 80, 2-(3-(2-chlorophenoxy)-2-methoxypropyl)-6-(4-(trifluoromethoxy)phenyl)-[1,2,4]triazolo[4,3-a]pyridin-3(2H)-one], the figure is 33.4%. Turning to `O=c1n(CCOc2cccnn2)nc2ccc(-c3ccc(OC(F)(F)F)cc3)cn12` [compound 81, 2-(2-(pyridazin-3-yloxy)ethyl)-6-(4-(trifluoromethoxy)phenyl)-[1,2,4]triazolo[4,3-a]pyridin-3(2H)-one], the inhibition at 1 µM turned out to be 11%. The same measure, in the same setting: as for `Cc1cnc(OCCn2nc3ccc(-c4ccc(OC(F)(F)F)cc4)cn3c2=O)nc1` [compound 82, 2-(2-(5-methylpyrimidin-2-yloxy)ethyl)-6-(4-(trifluoromethoxy)phenyl)-[1,2,4]triazolo[4,3-a]pyridin-3(2H)-one], the figure is 32.5%; as for `Cc1noc(Cn2nc3ccc(-c4ccc(OCC(F)(F)F)cc4)cn3c2=O)n1` [compound 83, 2-((3-methyl-1,2,4-oxadiazol-5-yl)methyl)-6-(4-(2,2,2-trifluoroethoxy)phenyl)-[1,2,4]triazolo[4,3-a]pyridin-3(2H)-one], 10.7%; as for `Cc1noc(-c2ccccc2OCCn2nc3ccc(-c4ccc(OC(F)(F)F)cc4)cn3c2=O)n1` [compound 84, 2-(2-(2-(3-methyl-1,2,4-oxadiazol-5-yl)phenoxy)ethyl)-6-(4-(trifluoromethoxy)phenyl)-[1,2,4]triazolo[4,3-a]pyridin-3(2H)-one], 34.3%. On to `O=c1n(CCCOc2cnccn2)nc2ccc(-c3ccc(OC(F)(F)F)cc3)cn12` [compound 85, 2-(3-(pyrazin-2-yloxy)propyl)-6-(4-(trifluoromethoxy)phenyl)-[1,2,4]triazolo[4,3-a]pyridin-3(2H)-one], for which the inhibition at 1 µM worked out at 12.2%. Take `Cc1nc(COCCn2nc3ccc(-c4ccc(OC(F)(F)F)cc4)cn3c2=O)no1` [compound 86, 2-(2-((5-methyl-1,2,4-oxadiazol-3-yl)methoxy)ethyl)-6-(4-(trifluoromethoxy)phenyl)-[1,2,4]triazolo[4,3-a]pyridin-3(2H)-one]: the inhibition at 1 µM was found to be 17.5%. Regarding `Cc1noc(Cn2nc3ccc(-c4ccc(OC(F)(F)F)cc4C)cn3c2=O)n1` [compound 87, 2-((3-methyl-1,2,4-oxadiazol-5-yl)methyl)-6-(2-methyl-4-(trifluoromethoxy)phenyl)-[1,2,4]triazolo[4,3-a]pyridin-3(2H)-one], the inhibition at 1 µM was 21.3%. Regarding `Cc1cc(C)nc(OCCn2nc3ccc(-c4ccc(OC(F)(F)F)cc4)cn3c2=O)n1` [compound 88, 2-(2-(4,6-dimethylpyrimidin-2-yloxy)ethyl)-6-(4-(trifluoromethoxy)phenyl)-[1,2,4]triazolo[4,3-a]pyridin-3(2H)-one], the inhibition at 1 µM was 20.8%. Still for that read-out and setting: to `O=c1n(CC(COc2ccccc2Cl)Oc2ncccn2)nc2ccc(-c3ccc(OC(F)(F)F)cc3)cn12` (stereo not drawn) [compound 89, 2-(3-(2-chlorophenoxy)-2-(pyrimidin-2-yloxy)propyl)-6-(4-(trifluoromethoxy)phenyl)-[1,2,4]triazolo[4,3-a]pyridin-3(2H)-one] belongs 16%; to `O=c1n(CCOc2nccc(C3CC3)n2)nc2ccc(-c3ccc(OC(F)(F)F)cc3)cn12` [compound 90, 2-(2-(4-cyclopropylpyrimidin-2-yloxy)ethyl)-6-(4-(trifluoromethoxy)phenyl)-[1,2,4]triazolo[4,3-a]pyridin-3(2H)-one], 36.3%; to `COC[C@H](Cn1nc2ccc(-c3ccc(OC(F)(F)F)cc3)cn2c1=O)Oc1ncccc1C(F)(F)F` [compound 91, (S)-2-(3-methoxy-2-(3-(trifluoromethyl)pyridin-2-yloxy)propyl)-6-(4-(trifluoromethoxy)phenyl)-[1,2,4]triazolo[4,3-a]pyridin-3(2H)-one], 58.3%.

The values are drawn from patent US9079901B2, “Fused heterocyclic compounds as ion channel modulators” (Gilead Sciences, Inc., priority 2010, dated 2015).
